Experimental data published in US20230086702A1, “SUBSTITUTED 2-AMINO-PYRAZOLYL-[1,2,4]TRIAZOLO[1,5A]PYRIDINE DERIVATIVES AND USE THEREOF” (The Johns Hopkins University, priority 2019, published 2023).

Columns and labels:
LZK = target: T1, LZK (Homo sapiens, UniProt O43283); assay: LZK biochemical assay (TR-FRET, MKK7 phosphorylation); conditions: LZK catalytic domain, MKK7 substrate, 15 μM ATP
T1 construct: 10 nM LZK, catalytic domain, Carna Biosiences in assay buffer; purchased Carna Biosciences ('Carna Biosiences' [sic])
T1 sequence (O43283 168-409 limits assumed): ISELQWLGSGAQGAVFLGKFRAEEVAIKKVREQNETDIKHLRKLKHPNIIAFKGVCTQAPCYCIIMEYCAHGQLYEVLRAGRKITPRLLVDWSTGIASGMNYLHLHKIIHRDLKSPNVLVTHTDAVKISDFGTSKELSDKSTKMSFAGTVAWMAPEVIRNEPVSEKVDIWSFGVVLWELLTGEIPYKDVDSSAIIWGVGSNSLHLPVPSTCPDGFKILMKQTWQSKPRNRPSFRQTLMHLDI
Protocol: (§1) LZK assay is a biochemical assay format designed to screen for inhibitors of LZK. Enzymatic activity of LZK is measured by monitoring phosphorylation of the physiological substrate MKK7 (MAP2K7, Dual specificity mitogen-activated protein kinase kinase 7). Phosphorylation is detected by a TR-FRET system whereby His-tagged MKK7 is labeled by a XL665-labeled anti-His antibody (FRET acceptor, emission 665 nm). LZK phosphorylates MKK7 at T275/S277 which is detected by an Eu-labeled anti-phospho-MKK7 (T275/S277) antibody (FRET donor, excitation 340 nm). Phosphorylation of MKK7 results in an increased TR-FRET signal (Ratio XL665-channel/Eu-channel) and inhibition of enzymatic activity of LZK decreases the TR-FRET signal.
All indicated concentrations final concentrations.
(§2) Detection buffer: 25 mM Tris/HCl pH 7.5, 100 mM EDTA, 100 mM NaCl, 200 mM KF, 0.01% Tween 20, 1:500 Smart Block.

DLK = target: T2, DLK (Homo sapiens, UniProt Q12852); assay: DLK biochemical assay (TR-FRET, MKK7 phosphorylation); conditions: DLK catalytic domain, MKK7 substrate, 60 μM ATP
T2 construct: 10 nM DLK, catalytic domain, Carna Biosiences; purchased Carna Biosciences ('Carna Biosiences' [sic])
T2 sequence (Q12852 125-366 limits assumed): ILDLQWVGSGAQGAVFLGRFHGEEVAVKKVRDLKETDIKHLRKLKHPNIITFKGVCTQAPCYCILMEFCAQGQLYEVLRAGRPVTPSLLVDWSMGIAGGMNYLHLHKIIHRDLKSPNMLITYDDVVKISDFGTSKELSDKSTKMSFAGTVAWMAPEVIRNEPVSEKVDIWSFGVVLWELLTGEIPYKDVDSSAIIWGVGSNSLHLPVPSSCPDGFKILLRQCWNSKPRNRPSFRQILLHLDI
Protocol: as §1, with “DLK assay” for “LZK assay”, “of DLK.” for “of LZK.”, “of DLK” for “of LZK”, “nm). DLK” for “nm). LZK”, “at T275/S277,” for “at T275/S277”
All indicated concentrations are final concentrations.
as §2

Molecule	IC50 (LZK)	IC50 (DLK)
CC[C@H](C)NC(=O)c1cc(-c2cnn(C(c3ccc(C(F)(F)F)nc3)C3CCOCC3)c2)cc2nc(N)nn12 (single isomer, unassigned) [Example I-112]	7 nM	8 nM
CC[C@H](C)NC(=O)c1cc(-c2cnn(C(c3ccccc3)C(C)C)c2)cc2nc(N)nn12 (single isomer, unassigned) [Example I-25]	140 nM	23 nM
CC[C@H](C)NC(=O)c1cc(-c2cnn(C(c3ccc(OCC(F)(F)F)nc3)C3CC3)c2)cc2nc(N)nn12 (single isomer, unassigned) [Example I-121]	30 nM	1.9 nM
CC[C@H](C)NC(=O)c1cc(-c2cnn(C3CCCc4ncccc43)c2)cc2nc(N)nn12 (mixture of isomers) [Example I-19, 2-Amino-N-[(2S)-butan-2-yl]-7-[1-(5,6,7,8-tetrahydroquinolin-5-yl)-1H-pyrazol-4-yl][1,2,4]triazolo[1,5-a]pyridine-5-carboxamide]	3.9 nM	21 nM
CCC(c1ccnc(C(F)(F)F)c1)n1cc(-c2cc(C(=O)N[C@@H](C)CC)n3nc(N)nc3c2)cn1 (mixture of isomers) [Example I-122, 2-Amino-N-[(2S)-butan-2-yl]-7-(1-{1-[2-(trifluoromethyl)pyridin-4-yl]propyl}-1H-pyrazol-4-yl)[1,2,4]triazolo[1,5-a]pyridine-5-carboxamide]	7.4 nM	3.5 nM
tert-Butyl 4-{(4-{2-amino-8-[(2S)-butan-2-ylcarbamoyl][1,2,4]triazolo[1,5-a]pyridin-6-yl}-1H-pyrazol-1-yl)[6-(trifluoromethyl)pyridin-3-yl]methyl}piperidine-1-carboxylate [Example I-80]	40 nM	45 nM
CC[C@H](C)NC(=O)c1cc(-c2cnn(C3CCCc4ccncc43)c2)cc2nc(N)nn12 (mixture of isomers) [Example I-21, 2-Amino-N-[(2S)-butan-2-yl]-7-[1-(5,6,7,8-tetrahydroisoquinolin-8-yl)-1H-pyrazol-4-yl][1,2,4]triazolo[1,5-a]pyridine-5-carboxamide]	5.1 nM	33 nM
CCC(c1ccc(OCC(F)(F)F)nc1)n1cc(-c2cc(C(=O)N[C@@H](C)CC)n3nc(N)nc3c2)cn1 (mixture of isomers) [Example I-113, 2-Amino-N-[(2S)-butan-2-yl]-7-(1-{1-[6-(2,2,2-trifluoroethoxy)pyridin-3-yl]propyl}-1H-pyrazol-4-yl)[1,2,4]triazolo[1,5-a]pyridine-5-carboxamide]	12 nM	5.4 nM
CCC(c1ccc(C(F)(F)F)nc1)n1cc(-c2cc(C(=O)N[C@H]3CCOC3)n3nc(N)nc3c2)cn1 (single isomer, unassigned) [Example I-178]	64 nM	17 nM
CC(C)(CO)NC(=O)c1cc(-c2cnn(C(c3ccc(C(F)(F)F)nc3)C3CCOCC3)c2)cn2nc(N)nc12 (single isomer, unassigned) [Example I-167, 2-Amino-N-(1-hydroxy-2-methylpropan-2-yl)-6-(1-{tetrahydro-2H-pyran-4-yl[6-(trifluoromethyl)pyridin-3-yl]methyl}-1H-pyrazol-4-yl)[1,2,4]triazolo[1,5-a]pyridine-8-carboxamide]	85 nM	22 nM
CC[C@H](C)NC(=O)c1cc(-c2cnn(C(c3ccc(OCC(F)(F)F)nc3)C(C)C)c2)cc2nc(N)nn12 (single isomer, unassigned) [Example I-117]	250 nM	73 nM
CCC(c1ccc(OCC(F)(F)F)nc1)n1cc(-c2cc(C(=O)N[C@H]3CCOC3)n3nc(N)nc3c2)cn1 (single isomer, unassigned) [Example I-187]	18 nM	0.8 nM
CC[C@H](C)NC(=O)c1cc(-c2cnn([C@H](c3ccc(C(F)F)nc3)C(C)C)c2)cc2nc(N)nn12 (single isomer, unassigned) [Example I-97]	2.1 nM	0.9 nM

More lines, now with the values ahead:

IC50 (LZK)	IC50 (DLK)	Molecule
3.9 nM	2 nM	CCC(c1ccc(C(F)F)nc1)n1cc(-c2cc(C(=O)N[C@@H](C)CC)n3nc(N)nc3c2)cn1 (mixture of isomers) [Example I-92, 2-Amino-N-[(2S)-butan-2-yl]-7-(1-{1-[6-(difluoromethyl)pyridin-3-yl]propyl}-1H-pyrazol-4-yl)[1,2,4]triazolo[1,5-a]pyridine-5-carboxamide]
9 nM	24 nM	CC[C@H](C)NC(=O)c1cc(-c2cnn(C3CCN(Cc4ccccc4)CC3)c2)cn2nc(N)nc12 (single isomer, unassigned) [Example I-10]
8.9 nM	3.7 nM	CC[C@H](C)NC(=O)c1cc(-c2cnn([C@@H](CC)c3cncc(Cl)c3)c2)cn2nc(N)nc12 (single isomer, unassigned) [Example I-60]
33 nM	1.5 nM	CCC(c1ccc(Cl)s1)n1cc(-c2cc(C(=O)N[C@@H](C)CC)c3nc(N)nn3c2)cn1 (single isomer, unassigned) [Example I-131]
5.2 nM	0.4 nM	CC[C@H](C)NC(=O)c1cc(-c2cnn(C(c3cncc(Cl)c3)C(C)C)c2)cn2nc(N)nc12 (single isomer, unassigned) [Example I-63]
0.7 nM	0.3 nM	CC[C@H](C)NC(=O)c1cc(-c2cnn(C(c3ccc(C(F)(F)F)nc3)C3CCNCC3)c2)cn2nc(N)nc12 (single isomer, unassigned) [Example I-83]
240 nM	3.6 nM	CC[C@H](C)NC(=O)c1cc(-c2cnn(C(CC(F)(F)F)c3ccccc3)c2)cn2nc(N)nc12 (mixture of isomers) [Example I-37, 2-Amino-N-[(2S)-butan-2-yl]-6-{1-[3,3,3-trifluoro-1-phenylpropyl]-1H-pyrazol-4-yl}[1,2,4]triazolo[1,5-a]pyridine-8-carboxamide]
6.5 nM	2.1 nM	CCC(c1ccc(C(F)(F)F)nc1)n1cc(-c2cc(C(=O)N[C@@H](C)CC)c3nc(N)nn3c2)cn1 (mixture of isomers) [Example I-70, 2-Amino-N-[(2S)-butan-2-yl]-6-(1-{1-[6-(trifluoromethyl)pyridin-3-yl]propyl}-1H-pyrazol-4-yl)[1,2,4]triazolo[1,5-a]pyridine-8-carboxamide]
6.7 nM	17 nM	CC[C@H](C)NC(=O)c1cc(-c2cnn(C3CCN(CC)CC3)c2)cn2nc(N)nc12 (single isomer, unassigned) [Example I-6]
39 nM	3.4 nM	CCC(c1ccc(Cl)s1)n1cc(-c2cc(C(=O)N[C@@H](C)CC)c3nc(N)nn3c2)cn1 (mixture of isomers) [Example I-129, 2-Amino-N-[(2S)-butan-2-yl]-6-{1-[1-(5-chloro-2-thienyl)propyl]-1H-pyrazol-4-yl}[1,2,4]triazolo[1,5-a]pyridine-8-carboxamide]
180 nM	25 nM	CC[C@H](C)NC(=O)c1cc(-c2cnn(C(c3ccccc3)C(C)(C)C)c2)cn2nc(N)nc12 (single isomer, unassigned) [Example I-36]
3.8 nM	32 nM	CC[C@H](C)NC(=O)c1cc(-c2cnn(C3CCN(C(C)C)CC3)c2)cn2nc(N)nc12 (single isomer, unassigned) [Example I-7]
160 nM	100 nM	CCC(c1ccc(OCC(F)(F)F)nc1)n1cc(-c2cc(C(=O)N[C@@H](C)CC)c3nc(N)nn3c2)cn1 (single isomer, unassigned) [Example I-86]
14 nM	82 nM	CC[C@H](C)NC(=O)c1cc(-c2cnn(C3CCN(C(C)=O)CC3)c2)cn2nc(N)nc12 (single isomer, unassigned) [Example I-11]
16 nM	10 nM	CC[C@H](c1ccc(C(F)(F)F)nc1)n1cc(-c2cc(C(=O)N[C@@H](C)CC)c3nc(N)nn3c2)cn1 (single isomer, unassigned) [Example I-72]
